What all share (assay type): cell-based
Assay [1] concerns the target protein kinases (human kinome) (Homo sapiens, UniProt P41240). Particulars: experiment wp147, 4 uM.
Assay [2] concerns the target T1, protein kinases (human kinome) (Homo sapiens, UniProt Q14CZ7).
T1 sequence (Q14CZ7 1-662): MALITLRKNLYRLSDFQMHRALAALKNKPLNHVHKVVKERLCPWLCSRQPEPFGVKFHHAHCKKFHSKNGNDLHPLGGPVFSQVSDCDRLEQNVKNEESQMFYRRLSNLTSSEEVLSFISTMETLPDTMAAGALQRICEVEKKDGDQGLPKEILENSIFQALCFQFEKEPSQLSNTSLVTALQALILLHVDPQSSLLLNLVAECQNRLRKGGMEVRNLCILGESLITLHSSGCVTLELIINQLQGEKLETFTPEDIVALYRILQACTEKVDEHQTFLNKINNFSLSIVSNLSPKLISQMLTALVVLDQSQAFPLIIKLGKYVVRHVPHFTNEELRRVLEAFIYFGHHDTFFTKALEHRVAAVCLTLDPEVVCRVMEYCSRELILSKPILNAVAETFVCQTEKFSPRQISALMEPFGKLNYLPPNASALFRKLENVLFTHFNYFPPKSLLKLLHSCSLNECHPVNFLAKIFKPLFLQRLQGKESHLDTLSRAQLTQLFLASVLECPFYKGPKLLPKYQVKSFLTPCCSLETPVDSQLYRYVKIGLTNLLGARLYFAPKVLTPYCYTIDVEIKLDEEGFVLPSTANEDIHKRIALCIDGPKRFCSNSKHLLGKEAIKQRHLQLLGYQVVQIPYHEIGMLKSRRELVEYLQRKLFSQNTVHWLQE
The conditions noted are these: Accession Q14CZ7, direction down.

Assay [3] addresses T2, protein kinases (human kinome) (Homo sapiens, UniProt Q53H12).
T2 sequence (Q53H12 1-422): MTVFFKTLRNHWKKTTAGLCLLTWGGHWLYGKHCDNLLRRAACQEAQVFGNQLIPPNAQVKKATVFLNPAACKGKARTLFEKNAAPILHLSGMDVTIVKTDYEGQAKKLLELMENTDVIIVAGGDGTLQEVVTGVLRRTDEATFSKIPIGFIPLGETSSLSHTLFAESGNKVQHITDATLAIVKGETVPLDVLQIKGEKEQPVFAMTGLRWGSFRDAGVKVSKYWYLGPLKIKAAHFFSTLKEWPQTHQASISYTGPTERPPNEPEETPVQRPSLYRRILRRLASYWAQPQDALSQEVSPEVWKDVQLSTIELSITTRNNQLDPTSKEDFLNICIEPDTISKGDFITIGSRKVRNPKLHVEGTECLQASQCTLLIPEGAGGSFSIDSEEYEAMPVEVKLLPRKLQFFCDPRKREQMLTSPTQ
Particulars: direction down.

We go through three compounds from US20240269139A1, “COMPOUNDS FOR TARGETED PROTEIN DEGRADATION OF KINASES” (DANA-FARBER CANCER INSTITUTE, INC., priority 2020, published 2024).

Where two headings read alike, the source gives them in different places.

Chain of protein kinases (human kinome) (Homo sapiens, UniProt P41240) (P41240 whole entry): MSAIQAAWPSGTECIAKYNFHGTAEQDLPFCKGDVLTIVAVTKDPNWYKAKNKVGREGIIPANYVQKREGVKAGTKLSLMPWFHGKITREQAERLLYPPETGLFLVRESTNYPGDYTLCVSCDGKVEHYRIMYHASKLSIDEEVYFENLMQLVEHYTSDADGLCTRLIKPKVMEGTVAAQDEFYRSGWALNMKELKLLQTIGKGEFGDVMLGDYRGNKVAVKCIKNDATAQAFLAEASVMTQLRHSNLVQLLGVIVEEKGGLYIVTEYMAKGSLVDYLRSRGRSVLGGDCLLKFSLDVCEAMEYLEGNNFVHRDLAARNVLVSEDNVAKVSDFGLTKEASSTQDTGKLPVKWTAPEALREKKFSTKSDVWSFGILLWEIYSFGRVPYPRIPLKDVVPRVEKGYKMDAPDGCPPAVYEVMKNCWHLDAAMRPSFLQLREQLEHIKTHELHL

Consider `CC(C)(C)c1nc(-c2cccc(NS(=O)(=O)c3c(F)cccc3F)c2F)c(-c2ccnc(NCCOCCNC(=O)CCOCCOCCNc3cccc4c3C(=O)N(C3CCC(=O)NC3=O)C4=O)n2)s1` (stereo not shown) [DD.03.106], for which the “logFC of CSK” value in assay [1] (Accession P41240) is recorded as −0.5149. For the same compound, in assay [1] (CSK (P41240), down), the “logFC CSK” value is reported as −0.5149. In addition, the “logFC FASTKD3” value in assay [2] (experiment wp147, 4 uM) is −0.8259. Besides, the “logFC AGK (Q53H12)” value in assay [3] (Experiment wp147, 2 uM) is −0.346; in assay [3] (Experiment wp147, 4 uM), −0.9499.

Take `CC(C)(C)c1nc(-c2cccc(NS(=O)(=O)c3c(F)cccc3F)c2F)c(-c2ccnc(NCCOCCNC(=O)CCOCCOCCNc3cccc4c3CN(C3CCC(=O)NC3=O)C4=O)n2)s1` (stereo not shown) [DD.03.107]: the “logFC FASTKD3” value in assay [2] (experiment wp147, 1 uM) is listed as −0.6939; in assay [2] (experiment wp147, 2 uM), −0.6931; in assay [2] (experiment wp147, 4 uM), −1.191. For the same compound, the “logFC AGK (Q53H12)” value in assay [3] (Experiment wp147, 1 uM) was −0.7983; in assay [3] (Experiment wp147, 2 uM), −0.8655; in assay [3] (Experiment wp147, 4 uM), −1.343.

Regarding `Cc1cnc(Nc2ccc(N3CCN(CCOCCOCCNC(=O)COc4cccc5c4C(=O)N(C4CCC(=O)NC4=O)C5=O)CC3)cc2)nc1Nc1cccc(S(=O)(=O)NC(C)(C)C)c1` (stereo not shown) [JWG.118], in assay [2] (experiment wp071), the “logFC FASTKD3” value is given as −0.4386. Also, the “logFC AGK (Q53H12)” value in assay [3] (Experiment wp071) is given as −0.5599.
